Where a name gives a salt, the structure may show the parent alone.
Assays:
[1] = system: NIH-3T3/Gli reporter cells; assay: Evaluation of compound: Shh-N-induced luciferase activity in NIH-3T3/Gli reporter cells (Smo inhibitory action); format: cell-based; details: 48 hr; for inhibition at 1 µM: NIH3T3, 1 μM compound, mouse Shh-N end fragment supernatant, read-out: inhibition rate (%) at 1 μM; for IC50: NIH3T3, mouse Shh-N end fragment supernatant, read-out: IC50 value (compound concentration necessary for achieving 50% of the maximum value of inhibition rate)
Description: HEK293 cells were grown in D-MEM medium (Invitrogen) containing 10% fetal bovine serum in a 10 cm dish and pcDNA3.1/mShh-N was introduced into the cells using FuGENE6 (Roche Applied Science). Thereafter, the HEK293 cells were cultured in a carbon dioxide gas incubator at 37° C. for 24 hours, and the medium was exchanged with D-MEM medium (Invitrogen) containing 2% fetal bovine serum. After culturing for 48 hr, a culture supernatant containing recombinant type mouse Shh-N end fragment was obtained by filtration using a filter ([…]).
Using D-MEM (Invitrogen) containing 10% fetal bovine serum, expression plasmid pcDNA3.1 and Gli reporter plasmid (pGL3/δ-cry promoter, 8×Gli binding site) produced by the method of Experimental Example 1 were introduced into NIH-3T3 cells grown in a 10 cm dish by the use of FuGENE6 (Roche Applied Science).
After culture for 24 hr, the cells were recovered, suspended in D-MEM medium containing 10% fetal bovine serum and supplemented with Geneticin (Life Technologies Oriental, Inc.) to a final concentration of 500 μg/ml, diluted to 10^4 cells/ml, plated on a 96 well plate, and cultured in a carbon dioxide gas incubator at 37° C. to give Geneticin resistant transformed cell line.
The obtained transformed cell line was cultured in a 96 well plate, mouse Shh-N end fragment obtained in Experimental Example 3 was added, and NIH-3T3/Gli reporter cell, which is a cell line capable of induction of luciferase expression, was selected.
NIH-3T3/Gli reporter cells cultured in D-MEM (Invitrogen) containing 10% fetal bovine serum were plated in a 96 well white plate at 1×10^4 cells/well, and cultured overnight in a carbon dioxide gas incubator at 37° C. The medium was removed, a compound (50 μl) and culture supernatant of mouse Shh-N end fragment-expressing HEK293 (D-MEM medium containing 2% fetal bovine serum, 50 μl) were added, and the cells were cultured for 48 hr in a carbon dioxide gas incubator at 37° C. Bright-Glo (Promega, 50 μl) was added, and the mixture was stirred, after which luciferase activity was measured by EnVision (PerkinElmer). The inhibition rate was calculated based on the luciferase activity of the control without addition of the compound as 100. The concentration of the compound and the inhibition rate were analyzed by PRISM3.00 (software of GraphPad), based on which the IC50 value (compound concentration necessary for achieving 50% of the maximum value of inhibition rate) of the compound was calculated.

[2] = system: mouse medulloblastoma allogeneic transplantation model; assay: In vivo anti-tumor test, mouse medulloblastoma allogeneic transplantation model; details: 6.25 mg/kg orally twice a day for 2 weeks; nude mouse, subcutaneous medulloblastoma from Patched 1(+/-), p53(-/-) mouse; end of administration
Description: According to the description in Sasaki, K. et al., (2006) Cancer Res. 66: 4215-4222, an anti-tumor effect of a compound was evaluated using a mouse medulloblastoma allogeneic transplantation model. To be precise, Patched 1 gene mutant mouse (lineage name: Ptch1tm1Mps/J) was purchased from The Jackson Laboratory and p53 gene mutant mouse (lineage name: P53N4-M, Nomenclature: B6.129-Trp53tm/BrdN4) was purchased from Taconic, and a mouse of Patched 1(+/−), p53(−/−) phenotype was prepared by mating. The tumor tissue of medulloblastoma spontaneously occurred in the cerebellum of 7- to 9-week-old Patched 1(+/−), p53(−/−) mouse was taken and subcutaneously transplanted into a nude mouse (lineage name: CAnN.Cg-Foxn1/CrlCrlj).
An anti-tumor test was performed using a tumor passaged by subcutaneous transplantation. A tumor mass was isolated by a 40 μm cell strainer (BD Biosciences, Cat. No. 352340), a tumor suspension was prepared with Leibovitz's L-15 medium (GIBCO, Cat. No. 11415-114) in a 2-fold amount relative to the tumor mass weight, mixed with an equivalent amount of matrigel (BD Biosciences, Cat. No. 356237), and subcutaneously transplanted to a mouse at […] per transplantation site. The tumor diameter after transplantation was measured and, when the tumor size reached 150-250 mm^3, the anti-tumor test was started using 5 mice per group.
The test compound was prepared to achieve a dose of 6.25 mg/kg with a 0.5% methylcellulose (Shin-Etsu Chemical Co., Ltd., Cat. No. SM-100) suspension, and orally administered twice a day for 2 weeks. The tumor size was calculated based on the longer diameter and shorter diameter of the tumor measured with an electron vernier caliper. After the start of the test, the tumor size was measured every 2 or 3 days and the growth rate of the tumor size was calculated. A tumor growth inhibitory effect of 95% or above was confirmed in each test compound administration group.
The tumor growth rate and the results of a significant difference test by the administration of each test compound are shown in the Table. The growth rate of the tumor size (T/C) was calculated according to: growth rate (T/C)=((tumor size of compound administration group at the end of administration)−(tumor size of compound administration group at the start of administration))/((tumor size of control group at the end of administration)−(tumor size of control group at the start of administration))×100.

Row | Compound | inhibition at 1 µM [1] [%] | T/C (%) growth rate of the tumor size [2] [%] | IC50 [1] [nM]
1 | CCOc1c(C(=O)NC2CCN(C(=O)CO)CC2)n(C)c2cc(CC)n(CC(=O)c3ccccc3)c(=O)c12 [Example 139, 3-ethoxy-6-ethyl-N-[1-(hydroxyacetyl)piperidin-4-yl]-1-methyl-4-oxo-5-(2-oxo-2-phenylethyl)-4,5-dihydro-1H-pyrrolo[3,2-c]pyridine-2-carboxamide] | 100 | 0.4 | 
2 | CCc1cc2c(c(OCC(F)(F)F)c(C(=O)NC3CCN(C(=O)CO)CC3)n2C)c(=O)n1CC(=O)c1ccccc1 [Example 143, 6-ethyl-N-[1-(hydroxyacetyl)piperidin-4-yl]-1-methyl-4-oxo-5-(2-oxo-2-phenylethyl)-3-(2,2,2-trifluoroethoxy)-4,5-dihydro-1H-pyrrolo[3,2-c]pyridine-2-carboxamide] | 100 | 0.0 | 
3 | Cc1cc2c(c(OCC(F)(F)F)c(C(=O)NC3CCN(C(=O)CO)CC3)n2C)c(=O)n1CC(=O)c1ccccc1 [Example 140, N-[1-(hydroxyacetyl)piperidin-4-yl]-1,6-dimethyl-4-oxo-5-(2-oxo-2-phenylethyl)-3-(2,2,2-trifluoroethoxy)-4,5-dihydro-1H-pyrrolo[3,2-c]pyridine-2-carboxamide] | 100 | 5.3 | 
4 | COc1c(C(=O)NC2CCN(CCO)CC2)n(C)c2c1c(=O)n(CC(=O)c1ccccc1)c1ccccc21 [Example 79, N-[1-(2-hydroxyethyl)piperidin-4-yl]-3-methoxy-1-methyl-4-oxo-5-(2-oxo-2-phenylethyl)-4,5-dihydro-1H-pyrrolo[3,2-c]quinoline-2-carboxamide] | 100 | 0.8 | ≤ 1000
5 | CCN(CC)CCN(C)C(=O)c1sc2c(c1OC)c(=O)n(CC1CC1)c1ccccc21 [Example 41, 5-(cyclopropylmethyl)-N-[2-(diethylamino)ethyl]-3-methoxy-N-methyl-4-oxo-4,5-dihydrothieno[3,2-c]quinoline-2-carboxamide] | 100 |  | ≤ 1000
6 | COc1c(C(=O)N2CCCCC2CN)sc2c1c(=O)n(CC(=O)c1ccccc1)c1ccccc21 (centres unmarked) [Example 73, 2-{[2-(aminomethyl)piperidin-1-yl]carbonyl}-3-methoxy-5-(2-oxo-2-phenylethyl)thieno[3,2-c]quinolin-4(5H)-one hydrochloride] | 100 |  | ≤ 1000
7 | CCOc1c(C(=O)NC2CCN(CCO)CC2)n(C)c2cc(C)n(CC(=O)c3ccccc3)c(=O)c12 [Example 138, 3-ethoxy-N-[1-(2-hydroxyethyl)piperidin-4-yl]-1,6-dimethyl-4-oxo-5-(2-oxo-2-phenylethyl)-4,5-dihydro-1H-pyrrolo[3,2-c]pyridine-2-carboxamide] | 100 |  | 
8 | COc1c(C(=O)NC2CCN(C(=O)CO)CC2)n(C)c2c1c(=O)n(CC(=O)c1ccccc1)c1ccccc21 [Example 124, N-[1-(hydroxyacetyl)piperidin-4-yl]-3-methoxy-1-methyl-4-oxo-5-(2-oxo-2-phenylethyl)-4,5-dihydro-1H-pyrrolo[3,2-c]quinoline-2-carboxamide] | 100 | 2.0 | 
9 | COc1c(C(=O)NCC(C)(C)CO)n(C)c2c1c(=O)n(CC(=O)c1ccccc1)c1ccccc21 [Example 109, N-(3-hydroxy-2,2-dimethylpropyl)-3-methoxy-1-methyl-4-oxo-5-(2-oxo-2-phenylethyl)-4,5-dihydro-1H-pyrrolo[3,2-c]quinoline-2-carboxamide] | 100 |  | ≤ 1000
10 | CCOc1c(C(=O)NC2CCN(C(=O)CO)CC2)sc2cc(CC)n(CC(=O)c3ccccc3)c(=O)c12 [Example 650, 3-ethoxy-6-ethyl-N-[1-(hydroxyacetyl)piperidin-4-yl]-4-oxo-5-(2-oxo-2-phenylethyl)-4,5-dihydrothieno[3,2-c]pyridine-2-carboxamide] | 100 |  | 
11 | CCc1cc2c(c(OCC(F)(F)F)c(C(=O)NC3CCN(C(=O)CO)CC3)n2C)c(=O)n1Cc1ccccc1OC [Example 658, 6-ethyl-N-[1-(hydroxyacetyl)piperidin-4-yl]-5-(2-methoxybenzyl)-1-methyl-4-oxo-3-(2,2,2-trifluoroethoxy)-4,5-dihydro-1H-pyrrolo[3,2-c]pyridine-2-carboxamide] | 100 |  | 
12 | CCc1cc2c(c(OCCF)c(C(=O)NC3CCN(C(=O)CO)CC3)n2C)c(=O)n1CC(=O)c1ccccc1 [Example 142, 6-ethyl-3-(2-fluoroethoxy)-N-[1-(hydroxyacetyl)piperidin-4-yl]-1-methyl-4-oxo-5-(2-oxo-2-phenylethyl)-4,5-dihydro-1H-pyrrolo[3,2-c]pyridine-2-carboxamide] | 100 |  | 
13 | CCOc1c(C(=O)NC2CCN(C(=O)CO)CC2)n(C)c2cc(C)n(CC(=O)c3ccccc3)c(=O)c12 [Example 136, 3-ethoxy-N-[1-(hydroxyacetyl)piperidin-4-yl]-1,6-dimethyl-4-oxo-5-(2-oxo-2-phenylethyl)-4,5-dihydro-1H-pyrrolo[3,2-c]pyridine-2-carboxamide] | 100 |  | 
14 | COc1c(C(=O)NC2CCN(c3ccncc3)CC2)n(C)c2cc(C)n(CC(=O)c3ccccc3)c(=O)c12 [Example 135, 3-methoxy-1,6-dimethyl-4-oxo-5-(2-oxo-2-phenylethyl)-N-(1-pyridin-4-ylpiperidin-4-yl)-4,5-dihydro-1H-pyrrolo[3,2-c]pyridine-2-carboxamide] | 100 |  | 
